Data on 30 compounds can be found in patent US20100249132A1, “IMIDAZOLE DERIVATIVES” (MERCK PATENT GESELLSCHAFT MIT BESCHRANKTER HAFTUNG, priority 2007, published 2010).

The structures appear in SMILES notation. Some results are limits rather than exact numbers.

One may read the IC50 as the concentration that gives 50% inhibition.

In the assay the target is T1, recombinant autotaxin (Homo sapiens, UniProt Q13822).
T1 construct: made in house; host or cells: Hi5 insect cells (baculovirus)
The assay is described as follows: Autotaxin test (enzyme test), Amplex Red fluorescence. The class given is biochemical. Particulars: substrate LPC 75 μM, Amplex Red detection, read-out: IC50 (autotaxin inhibition, enzyme test). The procedure: Autotaxin Inhibition (Enzyme Test)
Autotaxin Test (Enzyme Test)
The autotaxin activity is measured indirectly using Amplex Red reagent. Amplex Red is measured here as fluorogenic indicator for the H2O2 formed. In detail, autotaxin converts the substrate lysophosphatidylcholine (LPC) into phosphocholine and lysophosphatidylic acid (LPA). After this reaction, the phosphocholine is reacted with alkaline phosphatase to give inorganic phosphate and choline. In the next step, choline is oxidised by choline oxidase to give betaine, with formation of H2O2. H2O2 reacts with Amplex Red reagent in the presence of peroxidase (horseradish peroxidase) in a 1:1 stoichiometry and forms the highly fluorescent resorufin. The fluorescence is measured in a reaction-dependent kinetic mode in order that fluorescent signals from possible other fluorescent substances which are not involved in the reaction can be corrected out.
1.5 μl of a standard solution or of the test substances (substances with the name A(n)) in individual concentrations dissolved in 20 mM Hepes pH 7.2 with a maximum of 7.7% of DMSO are pre-incubated together with 10 μl (16 ng) of highly purified recombinant autotaxin in a black microtitre plate provided with 384 wells at 22° C. for 30 min. The reaction is then initiated by addition of 5 μl of L-α-lysophosphatidylcholine (LPC), where the final concentration of LPC is 75 μM. The mixture is incubated at 37° C. for 90 min. After the incubation, Amplex Red reagent, peroxidase (horseradish peroxidase) and choline oxidase is added, and the fluorescence is immediately measured at 612 nm with excitation of 485 nm in a “Tecan Ultra multimode” reader. The activity of autotaxin is calculated indirectly via detection of the H2O2 formed. • Material: • Microtitre plate: PS microplate, 384 wells, small volume, black Corning, Cat #3677 • Protein: recombinant autotaxin (Baculovirale Hi5 Expression) • Substrate: L-α-lysophosphatidylcholine (chicken egg)); Avanti Polar Lipids #830071 P • Standard: C14 LPA, Avanti Polar Lipids, Cat #857120P • Detection reagent: Amplex Red reagent; Invitrogen #A12222; dissolved in 1.923 ml of DMSO peroxidase type VI-A (horseradish) from Sigma #P6782; dissolved in 7.45 ml of test buffer, choline oxidase; Sigma #C5896; dissolved in 2.47 ml of test buffer • Detection reagent mix: 1:100 dilution of Amplex Red reagent in test buffer • Test buffer: 200 mM Tris HCl, Merck, Cat #1.08219, pH 7.9, 0.1% of BSA, lipid-free, Roche Cat #775835
Turning to `Cc1cc(C)c(NC(=O)Nc2[nH]c(Cc3ccc(C(=O)O)o3)nc2C(N)=O)c(C)c1` [Compound A31, 5-{4-Carbamoyl-5-[3-(2,4,6-trimethylphenyl)-ureido]-1H-imidazol-2-ylmethyl}furan-2-carboxylic acid], the IC50 was 1 to 10 µM.

Consider `CCc1cccc(C)c1NC(=O)Nc1[nH]c(Cc2ccc(C(=O)O)o2)nc1C(N)=O` [Compound A32, 5-{4-Carbamoyl-5-[3-(2-ethyl-6-methylphenyl)-ureido]-1H-imidazol-2-ylmethyl}furan-2-carboxylic acid], for which the IC50 is above 10 µM.

In the case of `NC(=O)c1nc(Cc2ccc(C(=O)O)o2)[nH]c1NC(=O)Nc1ccc2ccccc2c1` [Compound A33, 5-[4-Carbamoyl-5-(3-naphthalen-2-ylureido)-1H-imidazol-2-ylmethyl]furan-2-carboxylic acid], the IC50 was above 10 µM.

For the compound `NC(=O)c1nc(Cc2ccc(OCC(=O)O)cc2)[nH]c1NC(=O)Nc1ccc(F)cc1` [Compound A36, (4-{4-Carbamoyl-5-[3-(4-fluorophenyl)ureido]-1H-imidazol-2-ylmethyl}phenoxy)acetic acid], the IC50 was above 10 µM.

For `NC(=O)c1nc(Cc2ccc(OCC(=O)O)cc2)[nH]c1NC(=O)Nc1cccc(C(F)(F)F)c1` [Compound A37, (4-{4-Carbamoyl-5-[3-(3-trifluoromethylphenyl)-ureido]-1H-imidazol-2-ylmethyl}phenoxy)acetic acid], the IC50 is above 10 µM.

In the case of `NC(=O)c1nc(Cc2ccc(OCC(=O)O)cc2)[nH]c1NC(=O)Nc1ccc(C(F)(F)F)cc1` [Compound A38, (4-{4-Carbamoyl-5-[3-(4-trifluoromethylphenyl)-ureido]-1H-imidazol-2-ylmethyl}phenoxy)acetic acid], the IC50 was 1 to 10 µM.

For the compound `CCCCc1ccc(NC(=O)Nc2[nH]c(Cc3ccc(OCC(=O)O)cc3)nc2C(N)=O)cc1` [Compound A39, (4-{5-[3-(4-Butylphenyl)ureido]-4-carbamoyl-1H-imidazol-2-ylmethyl}phenoxy)acetic acid], the IC50 fell in the range of 1 to 10 µM.

Regarding `Cc1ccc(NC(=O)Nc2[nH]c(Cc3ccc(OCC(=O)O)cc3)nc2C(N)=O)cc1` [Compound A40, {4-[4-Carbamoyl-5-(3-p-tolylureido)-1H-imidazol 2-ylmethyl]phenoxy}acetic acid], the IC50 lay within 1 to 10 µM.

In the case of `NC(=O)c1nc(Cc2ccc(OCC(=O)O)cc2)[nH]c1NC(=O)Nc1ccc(Cl)cc1` [Compound A41, (4-{4-Carbamoyl-5-[3-(4-chlorophenyl)ureido]-1H-imidazol-2-ylmethyl}phenoxy)acetic acid], the IC50 was in the range of 1 to 10 µM.

As to `CCc1ccc(NC(=O)Nc2[nH]c(Cc3ccc(OCC(=O)O)cc3)nc2C(N)=O)cc1` [Compound A42, (4-{4-Carbamoyl-5-[3-(4-ethylphenyl)ureido]-1H imidazol-2-ylmethyl}phenoxy)acetic acid], the IC50 lay within 1 to 10 µM.

On to `CCCCCc1ccc(NC(=O)Nc2[nH]c(Cc3ccc(OCC(=O)O)cc3)nc2C(N)=O)cc1` [Compound A43, (4-{4-Carbamoyl-5-[3-(4-pentylphenyl)ureido]-1 H-imidazol-2-ylmethyl}phenoxy)acetic acid], for which the IC50 is 1 to 10 µM.

`NC(=O)c1nc(Cc2ccc(OCC(=O)O)cc2)[nH]c1NC(=O)Nc1cc(C(F)(F)F)ccc1F` [Compound A44, (4-{4-Carbamoyl-5-[3-(2-fluoro-5-trifluoromethyl-phenyl)ureido]-1H-imidazol-2-ylmethyl}phenoxy)-acetic acid]: the IC50 was above 10 µM.

Regarding `NC(=O)c1nc(Cc2ccc(OCC(=O)O)cc2)[nH]c1NC(=O)Nc1ccc(Oc2ccccc2)cc1` [Compound A45, (4-{4-Carbamoyl-5-[3-(4-phenoxyphenyl)ureido]-1H-imidazol-2-ylmethyl}phenoxy)acetic acid], the IC50 was above 10 µM.

Take `NC(=O)c1nc(-c2ccc(OCC(=O)O)cc2)[nH]c1NC(=O)Nc1ccc(F)cc1` [Compound A46, (4-{4-Carbamoyl-5-[3-(4-fluorophenyl)ureido]-1H-imidazol-2-yl}phenoxy)acetic acid]: the 50% inhibitory concentration (IC50) is above 10 µM.

In the case of `NC(=O)c1nc(-c2ccc(OCC(=O)O)cc2)[nH]c1NC(=O)Nc1ccccc1Cl` [Compound A47, (4-{4-Carbamoyl-5-[3-(2-chlorophenyl)ureido]-1H-imidazol-2-yl}phenoxy)acetic acid], the IC50 is above 10 µM.

Consider `Cc1cccc(C)c1NC(=O)Nc1[nH]c(-c2ccc(OCC(=O)O)cc2)nc1C(N)=O` [Compound A48, (4-{4-Carbamoyl-5-[3-(2,6-dimethylphenyl)-ureido]-1H-imidazol-2-yl}phenoxy)acetic acid], for which the IC50 is above 10 µM.

As to `NC(=O)c1nc(-c2ccc(OCC(=O)O)cc2)[nH]c1NC(=O)Nc1cccc(C(F)(F)F)c1` [Compound A49, (4-{4-Carbamoyl-5-[3-(3-trifluoromethylphenyl)-ureido]-1H-imidazol-2-yl}phenoxy)acetic acid], the IC50 lay in the range of 1 to 10 µM.

Consider `NC(=O)c1nc(-c2ccc(OCC(=O)O)cc2)[nH]c1NC(=O)Nc1ccc(C(F)(F)F)cc1` [Compound A50, (4-{4-Carbamoyl-5-[3-(4-trifluoromethylphenyl)-ureido]-1H-imidazol-2-yl}phenoxy)acetic acid], for which the IC50 is 1 to 10 µM.

In the case of `CC(C)c1ccc(NC(=O)Nc2[nH]c(-c3ccc(OCC(=O)O)cc3)nc2C(N)=O)cc1` [Compound A51, (4-{4-Carbamoyl-5-[3-(4-isopropylphenyl)ureido]-1H-imidazol-2-yl}phenoxy)acetic acid], the IC50 was in the range of 1 to 10 µM.

Take `CCCCc1ccc(NC(=O)Nc2[nH]c(-c3ccc(OCC(=O)O)cc3)nc2C(N)=O)cc1` [Compound A52, (4-{5-[3-(4-Butylphenyl)ureido]-4-carbamoyl-1H-imidazol-2-yl}phenoxy)acetic acid]: the IC50 was above 10 µM.

For the compound `Cc1ccc(NC(=O)Nc2[nH]c(-c3ccc(OCC(=O)O)cc3)nc2C(N)=O)cc1` [Compound A53, {4-[4-Carbamoyl-5-(3-p-tolylureido)-1H-imidazol 2-yl]phenoxy}acetic acid], the IC50 is above 10 µM.

For the compound `CCc1ccc(NC(=O)Nc2[nH]c(-c3ccc(OCC(=O)O)cc3)nc2C(N)=O)cc1` [Compound A54, (4-{4-Carbamoyl-5-[3-(4-ethylphenyl)ureido]-1H-imidazol-2-yl}phenoxy)acetic acid], the IC50 lay within 1 to 10 µM.

For `NC(=O)c1nc(-c2ccc(OCC(=O)O)cc2)[nH]c1NC(=O)Nc1cc(C(F)(F)F)ccc1F` [Compound A55, (4-{4-Carbamoyl-5-[3-(2-fluoro-5-trifluoromethyl-phenyl)ureido]-1H-imidazol-2-yl}phenoxy)acetic acid], the IC50 was 1 to 10 µM.

On to `NC(=O)c1nc(COc2ccc(CC(=O)O)cc2)[nH]c1NC(=O)Nc1ccc(C(F)(F)F)cc1` [Compound A56, (4-{4-Carbamoyl-5-[3-(4-trifluoromethylphenyl)-ureido]-1H-imidazol-2-ylmethoxy}phenyl)acetic acid], for which the IC50 is 1 to 10 µM.

As for `CC(C)c1ccc(NC(=O)Nc2[nH]c(COc3ccc(CC(=O)O)cc3)nc2C(N)=O)cc1` [Compound A57, (4-{4-Carbamoyl-5-[3-(4-isopropylphenyl)ureido]-1H-imidazol-2-ylmethoxy}phenyl)acetic acid], the IC50 is 1 to 10 µM.

With `Cc1ccc(NC(=O)Nc2[nH]c(COc3ccc(CC(=O)O)cc3)nc2C(N)=O)cc1` [Compound A58, {4-[4-Carbamoyl-5-(3-p-tolylureido)-1H-imidazol 2-ylmethoxy]phenyl}acetic acid], the IC50 was above 10 µM.

For `NC(=O)c1nc(COc2ccc(CC(=O)O)cc2)[nH]c1NC(=O)Nc1ccc(Cl)cc1` [Compound A59, (4-{4-Carbamoyl-5-[3-(4-chlorophenyl)ureido]-1H-imidazol-2-ylmethoxy}phenyl)acetic acid], the IC50 is above 10 µM.

For `Cc1ccc(NC(=O)Nc2[nH]c(COc3ccc(CC(=O)O)cc3)nc2C(N)=O)c(C)c1` [Compound A60, (4-{4-Carbamoyl-5-[3-(2,4-dimethylphenyl)-ureido]-1H-imidazol-2-ylmethoxy}phenyl)acetic acid], the IC50 was 1 to 10 µM.

In the case of `CCc1ccc(NC(=O)Nc2[nH]c(COc3ccc(CC(=O)O)cc3)nc2C(N)=O)cc1` [Compound A61, (4-{4-Carbamoyl-5-[3-(4-ethylphenyl)ureido]-1H-imidazol-2-ylmethoxy}phenyl)acetic acid], the IC50 is 1 to 10 µM.

Regarding `Cc1cc(Cl)ccc1NC(=O)Nc1[nH]c(COc2ccc(CC(=O)O)cc2)nc1C(N)=O` [Compound A62, (4-{4-Carbamoyl-5-[3-(4-chloro-2-methylphenyl)-ureido]-1H-imidazol-2-ylmethoxy}phenyl)acetic acid], the IC50 lay within 1 to 10 µM.
